Experimental data: the CheMixHub viscosity set

Assay: xn = mol fraction of the nth substance listed

CCCCC + CCCCCCCCCCCCCCCC
298.15 K, 101.33 kPa
Settings | viscosity [mPa·s]
x1 = 0.1111 | 2.574
x1 = 0.2119 | 2.17
x1 = 0.3099 | 1.816
x1 = 0.4166 | 1.457
x1 = 0.5122 | 1.172
x1 = 0.6089 | 0.9218
x1 = 0.7034 | 0.7004
x1 = 0.8034 | 0.5086
x1 = 0.9029 | 0.3464

CS(C)=O + CCCCCCCO
101 kPa
Settings | viscosity [mPa·s]
303.15 K, x1 = 0.1547 | 4.098
303.15 K, x1 = 0.3356 | 3.3
303.15 K, x1 = 0.4628 | 2.842
303.15 K, x1 = 0.5727 | 2.55
303.15 K, x1 = 0.6715 | 2.336
303.15 K, x1 = 0.7519 | 2.179
303.15 K, x1 = 0.8247 | 2.052
303.15 K, x1 = 0.8847 | 1.987
303.15 K, x1 = 0.9327 | 1.891
313 K, x1 = 0.1239 | 3.068
313 K, x1 = 0.2133 | 2.75
313 K, x1 = 0.2979 | 2.528
313 K, x1 = 0.4847 | 2.188
313 K, x1 = 0.5993 | 1.998
313 K, x1 = 0.7039 | 1.839
313 K, x1 = 0.8016 | 1.743
313 K, x1 = 0.9028 | 1.621

CCCCC(=O)OCC + CCCCCCO
viscosity [mPa·s], 101.33 kPa
Settings | x1 = 0.1071 | x1 = 0.2022 | x1 = 0.3018 | x1 = 0.3929 | x1 = 0.5117 | x1 = 0.6028 | x1 = 0.7035 | x1 = 0.8025 | x1 = 0.9053
293.15 K | 3.938 | 3.209 | 2.61 | 2.177 | 1.74 | 1.483 | 1.258 | 1.086 | 0.946
303.15 K | 3.004 | 2.46 | 2.012 | 1.688 | 1.362 | 1.17 | 1.002 | 0.873 | 0.769
313.15 K | 2.257 | 1.873 | 1.558 | 1.329 | 1.1 | 0.964 | 0.846 | 0.755 | 0.682

CCCCCCCO + CCCCCCO
viscosity [mPa·s], 101.8 kPa
Settings | x2 = 0.1128 | x2 = 0.3611 | x2 = 0.5306 | x2 = 0.6915 | x2 = 0.9117
298.15 K | 5.786 | 5.339 | 5.173 | 4.875 | 4.5
308.15 K | 4.235 | 3.946 | 3.829 | 3.625 | 3.347
318.15 K | 3.16 | 2.963 | 2.879 | 2.737 | 2.535

CS(C)=O + CCCCCCO
101 kPa
Settings | viscosity [mPa·s]
303.15 K, x1 = 0.1678 | 2.991
303.15 K, x1 = 0.1907 | 2.831
303.15 K, x1 = 0.3273 | 2.582
303.15 K, x1 = 0.3639 | 2.288
303.15 K, x1 = 0.4458 | 2.342
303.15 K, x1 = 0.522 | 2.088
303.15 K, x1 = 0.5483 | 2.171
303.15 K, x1 = 0.64 | 2.061
303.15 K, x1 = 0.6669 | 1.898
303.15 K, x1 = 0.7228 | 1.983
303.15 K, x1 = 0.8002 | 1.739
303.15 K, x1 = 0.8098 | 1.901
303.15 K, x1 = 0.8795 | 1.827
303.15 K, x1 = 0.9231 | 1.722
303.15 K, x1 = 0.9413 | 1.754
313 K, x1 = 0.1163 | 2.459
313 K, x1 = 0.203 | 2.239
313 K, x1 = 0.4013 | 1.891
313 K, x1 = 0.4964 | 1.793
313 K, x1 = 0.5978 | 1.719
313 K, x1 = 0.6873 | 1.666
313 K, x1 = 0.7968 | 1.593
313 K, x1 = 0.9124 | 1.574
